“And” between values parts separate entries of the source, which are not always exact repeats. Equal values may be shown once.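 In this assay, cells in 96-well plates receive the compound at five concentrations for 48 hours. Endpoints are linearly interpolated between the surrounding concentrations. GI50: concentration for 50% inhibition of growth. The concentration for full growth arrest is given as TGI.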
Tested on: NCI-H522 lung
Assay: NCI anticancer screen, dose series, 48 h

| SMILES | GI50 | TGI |
| --- | --- | --- |
| Nc1c(C(=O)Nc2ccccn2)sc2nc3c(cc12)C(=O)CCC3 | 0.595 µM | > 100 µM |
| Cc1nc2c(Br)cc(Br)cc2c(=O)n1-c1nnc(-c2cccc(Cl)c2Cl)c(N)n1 | 12.8 µM | 54.6 µM |
| N#CC(I)CS(=O)(=O)c1ccccc1 (stereo not drawn) | 1.34 µM | 2.78 µM |
| COc1ccc2c(=O)oc3c(OC)cc(CCN(C)C)c4c(=O)oc1c2c34 | – | 25.6 µM and 13.9 µM |
| COc1ccc(Cl)cc1NC(=O)c1ccc(NC2=C(Cl)C(=O)N(Cc3ccccc3)C2=O)cc1 | 17.5 µM | > 100 µM |
| Cc1cccc(NC2=C(Cl)C(=O)c3nc(C)ccc3C2=O)c1 | 1.81 µM | 4.88 µM |
| COc1cc2c(cc1OCCCN1CCN(CCCOc3cc4c(cc3OC)C(=O)N3CC(F)(F)C[C@H]3C=N4)CC1)N=C[C@@H]1CC(F)(F)CN1C2=O | 1.14 µM | 3.86 µM |
| CCCCCCCCSC1=C(Cl)C(=O)C(OC)=C(OC)C1=O | – | 14.4 µM |
| COC(=O)C1=CN(CC2=CC(=O)C(C)=CC2=O)C=C(C(=O)OC)C1c1ccccc1OC | 23.7 µM | > 64.6 µM |
| COc1cccc2c1O/C(=C\c1ccc([N+](=O)[O-])s1)C2=O | 0.241 µM | 0.766 µM |
| COC(=O)/C=C/c1cc(OC(C)=O)c2c(c1)C(C(=O)OC)C(c1ccc(OC(C)=O)c(OC(C)=O)c1)O2 (stereo not drawn) | 0.0654 µM | 11.6 µM |
| O=C(O)c1ccc(CNCc2ccccc2)cc1 | – | > 100 µM |
| CCOC(=O)Nc1c(C)nc2ccccn12 | > 100 µM | > 100 µM |
| CC(C)=CCC1=C(O)c2ccccc2C(=O)C1=O | > 100 µM and 19.7 µM and 20.6 µM | > 100 µM |
| O=[N+]([O-])c1ccccc1N=Nc1c(O)[nH]c2c(Cl)cc(Cl)cc12 | – | > 100 µM |
| NC(=S)N/N=C/c1ncccc1O | 2.44 µM and 1.29 µM | > 42.9 µM and 87 µM |
| C=C(CN(C)Cc1ccccc1)c1ccc(NC(=O)c2ccc(C(=C)CN(C)Cc3ccccc3)cc2)cc1 | > 100 µM | > 100 µM |
| O=C(CC(=O)Nc1ccccc1)NNC(Sc1ccccc1)c1cc(N=Nc2ccc(Br)cc2)ccc1O (stereo not drawn) | – | > 10 µM |
| Cc1cc(C(=O)CSC(=S)SC(C)(C)C)ccc1Cl | – | 30.3 µM |
| C=CC12CCN(CC1)C(C(O)c1ccnc3ccc(OC)cc13)C2 (stereo not drawn) | 47.8 µM | > 100 µM |
| O=C(Nc1nc(-c2c[nH]c3ccccc23)cs1)c1n[nH]c(=O)c2ccccc12 | 3.26 µM | > 58.2 µM |
| CN(C)CCN1CCC(Cc2ccccc2)CC1 | > 80 µM | > 80 µM |
| COc1cc2c3c(n(C)c(=O)c2cc1OC)-c1cc2c(cc1C3=O)OCO2 | – | 34.8 µM |
| COc1ccc(/C=C\c2cc(OC)c(OC)c(OC)c2)cc1OCC(=O)O | – | 9.01 µM |
| CCSc1nc(N=Cc2ccccc2O)c2cn[nH]c2n1 | 48.9 µM | > 100 µM |
| CSC[C@H](NC(=O)COc1cccc2cnccc12)C(=O)NC(Cc1ccccc1)C(O)C(=O)N1CSC[C@H]1C(=O)NC(C)(C)C (stereo partly drawn) | – | > 100 µM |
| O=C(Nc1ncc(Cc2cccc(C(F)(F)F)c2)s1)c1ccc2c(c1)OCCO2 | 0.196 µM | – |
| C[C@H](CCOc1cccc(CC(=O)O)c1)N(Cc1cccc(C(F)(F)F)c1Cl)CC(c1ccccc1)c1ccccc1 | 4.51 µM | 22.3 µM |
| CNc1cc2oc(=O)cc(C)c2cc1C | – | > 100 µM |

Tested on: ACHN renal
Assay: NCI anticancer screen, dose series, 48 h

| SMILES | GI50 | TGI |
| --- | --- | --- |
| Nc1c(C(=O)Nc2ccccn2)sc2nc3c(cc12)C(=O)CCC3 | 6.06 µM | > 100 µM |
| Cc1nc2c(Br)cc(Br)cc2c(=O)n1-c1nnc(-c2cccc(Cl)c2Cl)c(N)n1 | 19.5 µM | 56.1 µM |
| N#CC(I)CS(=O)(=O)c1ccccc1 (stereo not drawn) | 1.87 µM | 3.35 µM |
| COc1ccc2c(=O)oc3c(OC)cc(CCN(C)C)c4c(=O)oc1c2c34 | 14.8 µM and 5.71 µM | 28.1 µM and 11.8 µM |
| COc1ccc(Cl)cc1NC(=O)c1ccc(NC2=C(Cl)C(=O)N(Cc3ccccc3)C2=O)cc1 | 94.2 µM | > 100 µM |
| Cc1cccc(NC2=C(Cl)C(=O)c3nc(C)ccc3C2=O)c1 | 1.24 µM | 2.53 µM |
| COc1cc2c(cc1OCCCN1CCN(CCCOc3cc4c(cc3OC)C(=O)N3CC(F)(F)C[C@H]3C=N4)CC1)N=C[C@@H]1CC(F)(F)CN1C2=O | 5.64 µM | 19.7 µM |
| CCCCCCCCSC1=C(Cl)C(=O)C(OC)=C(OC)C1=O | – | 23 µM |
| COC(=O)C1=CN(CC2=CC(=O)C(C)=CC2=O)C=C(C(=O)OC)C1c1ccccc1OC | 14.8 µM | 30.6 µM |
| COc1cccc2c1O/C(=C\c1ccc([N+](=O)[O-])s1)C2=O | 2.79 µM | > 100 µM |
| COC(=O)/C=C/c1cc(OC(C)=O)c2c(c1)C(C(=O)OC)C(c1ccc(OC(C)=O)c(OC(C)=O)c1)O2 (stereo not drawn) | 0.0779 µM | 35.5 µM |
| O=C(O)c1ccc(CNCc2ccccc2)cc1 | – | > 100 µM |
| CCOC(=O)Nc1c(C)nc2ccccn12 | > 100 µM | > 100 µM |
| CC(C)=CCC1=C(O)c2ccccc2C(=O)C1=O | – | > 100 µM |
| O=[N+]([O-])c1ccccc1N=Nc1c(O)[nH]c2c(Cl)cc(Cl)cc12 | – | 46.8 µM |
| NC(=S)N/N=C/c1ncccc1O | 0.202 µM | 8.54 µM and 1.38 µM |
| C=C(CN(C)Cc1ccccc1)c1ccc(NC(=O)c2ccc(C(=C)CN(C)Cc3ccccc3)cc2)cc1 | 66.6 µM | > 100 µM |
| O=C(CC(=O)Nc1ccccc1)NNC(Sc1ccccc1)c1cc(N=Nc2ccc(Br)cc2)ccc1O (stereo not drawn) | – | > 10 µM |
| Cc1cc(C(=O)CSC(=S)SC(C)(C)C)ccc1Cl | – | 62.9 µM |
| C=CC12CCN(CC1)C(C(O)c1ccnc3ccc(OC)cc13)C2 (stereo not drawn) | > 100 µM | > 100 µM |
| O=C(Nc1nc(-c2c[nH]c3ccccc23)cs1)c1n[nH]c(=O)c2ccccc12 | 8.98 µM | > 69.1 µM |
| CN(C)CCN1CCC(Cc2ccccc2)CC1 | > 80 µM | > 80 µM |
| COc1cc2c3c(n(C)c(=O)c2cc1OC)-c1cc2c(cc1C3=O)OCO2 | – | > 60.5 µM |
| COc1ccc(/C=C\c2cc(OC)c(OC)c(OC)c2)cc1OCC(=O)O | – | > 100 µM |
| CCSc1nc(N=Cc2ccccc2O)c2cn[nH]c2n1 | 29.8 µM | > 100 µM |
| CSC[C@H](NC(=O)COc1cccc2cnccc12)C(=O)NC(Cc1ccccc1)C(O)C(=O)N1CSC[C@H]1C(=O)NC(C)(C)C (stereo partly drawn) | – | 84.9 µM |
| O=C(Nc1ncc(Cc2cccc(C(F)(F)F)c2)s1)c1ccc2c(c1)OCCO2 | 0.58 µM | > 100 µM |
| C[C@H](CCOc1cccc(CC(=O)O)c1)N(Cc1cccc(C(F)(F)F)c1Cl)CC(c1ccccc1)c1ccccc1 | 5.11 µM | 17 µM |
| CNc1cc2oc(=O)cc(C)c2cc1C | – | > 100 µM |

Tested on: COLO 205 colon
Assay: NCI anticancer screen, dose series, 48 h

| SMILES | GI50 [µM] | TGI |
| --- | --- | --- |
| Nc1c(C(=O)Nc2ccccn2)sc2nc3c(cc12)C(=O)CCC3 | 0.908 | 26 µM |
| Cc1nc2c(Br)cc(Br)cc2c(=O)n1-c1nnc(-c2cccc(Cl)c2Cl)c(N)n1 | 32.9 | > 100 µM |
| N#CC(I)CS(=O)(=O)c1ccccc1 (stereo not drawn) | 2.03 | 3.86 µM |
| COc1ccc2c(=O)oc3c(OC)cc(CCN(C)C)c4c(=O)oc1c2c34 | – | 17.4 µM and 22.1 µM |
| COc1ccc(Cl)cc1NC(=O)c1ccc(NC2=C(Cl)C(=O)N(Cc3ccccc3)C2=O)cc1 | > 100 | > 100 µM |
| Cc1cccc(NC2=C(Cl)C(=O)c3nc(C)ccc3C2=O)c1 | 1.86 | 4.1 µM |
| COc1cc2c(cc1OCCCN1CCN(CCCOc3cc4c(cc3OC)C(=O)N3CC(F)(F)C[C@H]3C=N4)CC1)N=C[C@@H]1CC(F)(F)CN1C2=O | 3.09 | 10.2 µM |
| CCCCCCCCSC1=C(Cl)C(=O)C(OC)=C(OC)C1=O | – | 38 µM |
| COC(=O)C1=CN(CC2=CC(=O)C(C)=CC2=O)C=C(C(=O)OC)C1c1ccccc1OC | 18.9 | 38.2 µM |
| COc1cccc2c1O/C(=C\c1ccc([N+](=O)[O-])s1)C2=O | 5.15 | > 100 µM |
| COC(=O)/C=C/c1cc(OC(C)=O)c2c(c1)C(C(=O)OC)C(c1ccc(OC(C)=O)c(OC(C)=O)c1)O2 (stereo not drawn) | 3.43 | > 50.6 µM |
| O=C(O)c1ccc(CNCc2ccccc2)cc1 | – | > 100 µM |
| CCOC(=O)Nc1c(C)nc2ccccn12 | > 100 | > 100 µM |
